Values of other authors in patent US20230051463A1, “Methotrexate Dosage Form” (ROS Therapeutics ApS, priority 2020, published 2023).
Where two headings read alike, the source gives them in different places.

Assays:
[1] = oral

Row | SMILES | solubility in water | AUC(0-24) Geometric LS Mean ([1]; Methotrexate 10 mg) | Cmax Geometric LS Mean ([1]; Methotrexate 10 mg) | AUC(0-24) Geometric LS Mean ([1]; Methotrexate 15 mg) | Cmax Geometric LS Mean ([1]; Methotrexate 15 mg) | AUC(0-24) Geometric LS Mean ([1]; Methotrexate 20 mg) | Cmax Geometric LS Mean ([1]; Methotrexate 20 mg) | AUC(0-24) Geometric LS Mean ([1]; Methotrexate 25 mg) | Cmax Geometric LS Mean ([1]; Methotrexate 25 mg)
1 | CN(Cc1cnc2nc(N)nc(N)c2n1)c1ccc(C(=O)N[C@@H](CCC(=O)[O-])C(=O)[O-])cc1.[Na+].[Na+] [Methotrexate disodium] | freely soluble | – | – | – | – | – | – | – | –
2 | CN(Cc1cnc2nc(N)nc(N)c2n1)c1ccc(C(=O)N[C@@H](CCC(=O)O)C(=O)O)cc1 [Methotrexate] | practically insoluble | – | – | – | – | – | – | – | –
3 | CN(Cc1cnc2nc(N)nc(N)c2n1)c1ccc(C(=O)N[C@@H](CCC(=O)O)C(=O)O)cc1 [Oral MTX] | – | 1223.7 ng·h/mL | 247.2 ng/mL | 1752.0 ng·h/mL | 349.4 ng/mL | 1927.2 ng·h/mL | 440.4 ng/mL | 1987.8 ng·h/mL | 423.5 ng/mL
